Read-outs that look alike come from different tables or passages of the source.
Assays:
[1] = biological target: T1, human ACC1 (Homo sapiens, UniProt Q13085); test: ACC1 inhibitory activity (malachite green absorbance assay, recombinant enzyme); format: biochemical
T1 construct: made in house; host or cells: SF-9 insect cells, recombinant baculovirus BAC-ACC1
Procedure: The ACC1 inhibitory activity of the compound of the present invention was evaluated by the following method.
(§1) Human ACC1 gene was cloned by PCR using human liver cDNA library (Clontech) as a template, and Primer 1 and Primer 2 shown below. Primer 1 and Primer 2 were prepared by adding recognition sequence of restriction enzymes SalI and NotI based on the information of the base sequence (Genbank Accession U19822) of human ACC1 gene.
(§2) PCR was performed using Pyrobest DNA polymerase (TAKARA BIO INC.). The obtained PCR product was cloned to pT7 Blue vector (Novagen) which was, after confirmation of the base sequence, digested with restriction enzymes SalI and NotI. The obtained DNA fragment was inserted into pFAST-BacHTc (Invitrogen) digested with restriction enzymes SalI and NotI to give expression plasmid ACC1/pFAST-BacHTc.
Using the expression plasmid and BAC-TO-BAC Baculovirus Expression System (Invitrogen), virus stock BAC-ACC1 of recombinant Baculovirus was prepared.
(§3) SF-9 cells (Invitrogen) were sown at 1×10^6 cells/mL to insect cell culture medium (1 L, Sf-900II SFM medium (Invitrogen) containing 10% fetal bovine serum (Trace), 50 mg/L gentamicin (Invitrogen) and 0.1% Pluronic F-68 (Invitrogen)), and shaking culture was performed using a 2 L volume Erlenmeyer flask at 27° C., 100 rpm.
After culturing for 24 hr, the recombinant Baculovirus BAC-ACC1 (10 mL) was added, and the mixture was further cultured for 3 days. The culture medium was centrifuged at 1000×g for 5 min to give virus-infected cells. The infected cells were washed with phosphate buffered saline (Invitrogen) and centrifuged under the same conditions, and the obtained cells were cryopreserved at −80° C.
The cryopreserved cells were thawed in ice, suspended in 25 mM HEPES buffer (100 mL, pH 7.5) containing 10% Glycerol, 0.13 M NaCl, 1 mM EDTA, 25 mM sodium β-glycerophosphate, 1 mM sodium orthovanadate, added with Complete Protease Inhibitor (Boehringer). The obtained suspension was homogenized 3 times with a Polytron homogenizer (Kinematica) at 20,000 rpm for 30 seconds. The obtained cell disrupt solution was clarified by centrifugation at 185700×g for 50 min and filtrated using a 0.45 μm filter. The filtrate was passed through a column packed with Ni-NTA Super Flow Gel (QIAGEN, 12 mL) at a flow rate of about 5 mL/min. The column was washed with buffer A (50 mM HEPES containing 0.3M NaCl, pH 7.5), further washed with buffer A containing 20 mM Imidazole, and eluted with buffer A containing 100 mM Imidazole. The eluate was concentrated with Vivaspin 20 (Vivascience) having a molecular weight cut off of 30 K. The obtained concentrate was dialyzed using Sephadex G-25 (Amersham Bioscience K.K., 358 mL) equilibrated with 50 mM HEPES (pH7.5) containing 10 mM MgCl2, 2 mM dithiothreitol, 10 mM tripotassium citrate and 0.3M NaCl. The dialysate was concentrated with Vivaspin 20 (Vivascience) having a molecular weight cut off of 30 K and the concentrate was filtered through a 0.22 μm filter to give ACC1. The obtained ACC1 was cryopreserved at −80° C.
ACC1 (0.93 mg/ml) obtained in (2) above was diluted to a concentration of 8 μg/ml with an enzyme reaction buffer (50 mM HEPES (pH7.5), 10 mM MgCl2, 10 mM tripotassium citrate, 2 mM dithiothreitol, 0.75 mg/ml fatty acid free BSA), and added to each well of a 384 well assay plate (Nunc 265196) by 10 μl. […]

[2] = biological target: T2, human ACC2 (Homo sapiens, UniProt O00763); test: ACC2 inhibitory activity (malachite green absorbance assay, recombinant ACC2(Nd)); format: biochemical
T2 construct: made in house; host or cells: SF-9 insect cells, recombinant baculovirus BAC-ACC2(Nd)
Procedure: The ACC2 inhibitory activity of the compound of the present invention was evaluated by the following method.
as §1, with “ACC2” for “ACC1”, “skeletal muscle” for “liver”, “XbaI” for “NotI”, “U89344)” for “U19822)”
as §2, with “XbaI.” for “NotI.”, “pFAST-BacHTa” for “pFAST-BacHTc”, “XbaI” for “NotI”, “ACC2/pFAST-BacHTa.” for “ACC1/pFAST-BacHTc.”
A plasmid for expression of ACC2 free of mitochondrial targeting sequence was prepared by PCR using the expression plasmid as a template, and Primer 3 and Primer 4 shown below.
as §2, with “AflII.” for “NotI.”, “pFAST-BacHTa” for “pFAST-BacHTc”, “AflII” for “NotI”, “ACC2mito7/pFAST-BacHTa.” for “ACC1/pFAST-BacHTc.”
Using the expression plasmid and BAC-TO-BAC Baculovirus Expression System (Invitrogen), virus stock BAC-ACC2 of recombinant Baculovirus (N terminal deletion (hereinafter Nd)) was prepared.
as §3, with “0.5×10^6” for “1×10^6”, “(2” for “(1”, “Wave Bioreactor (Wave) under the conditions of” for “2 L volume Erlenmeyer flask at”, “20 rpm, rocking angle of 6° and oxygen concentration of 30%.” for “100 rpm.”
On day 4 of the culture, 3 L of an insect cell culture medium was added, the rocking angle was set to 8°, and the cells were further cultured. On day 5 of the culture, the recombinant Baculovirus BAC-ACC2(Nd) (100 mL) was added, 5 L of the insect cell culture medium was further added, the rocking angle was set to 11°, and the cells were cultured for 3 days. The culture medium was centrifuged at 1000×g for 10 min to give virus-infected cells. The infected cells were washed with phosphate buffered saline (Invitrogen) and centrifuged under the same conditions, and the obtained cells were cryopreserved at −80° C.
The cryopreserved cells were thawed in ice, suspended in 25 mM HEPES buffer (900 mL, pH 7.5) containing 10% Glycerol, 0.13 M NaCl, 1 mM EDTA, 25 mM sodium β-glycerophosphate, 1 mM sodium orthovanadate, added with Complete Protease Inhibitor (Boehringer). The obtained suspension was homogenized 3 times with a Polytron homogenizer (Kinematica) at 20,000 rpm for 30 seconds. The obtained cell disrupt solution was clarified by centrifugation at 31000×g for 60 min and filtrated using a 0.45 μm filter. The filtrate was passed through a column packed with Ni-NTA Super Flow Gel (QIAGEN, 60 mL) at a flow rate of about 5 mL/min. The column was washed with buffer A (50 mM HEPES containing 0.3M NaCl, pH 7.5), further washed with buffer A containing 20 mM Imidazole, and eluted with buffer A containing 100 mM Imidazole. The eluate was concentrated with Vivaspin 20 (Vivascience) having a molecular weight cut off of 30 K. The obtained concentrate was dialyzed against 50 mM HEPES (pH7.5) containing 10 mM MgCl2, 2 mM dithiothreitol, 10 mM tripotassium citrate and 0.3M NaCl. The dialysate was filtered through a 0.22 μm filter to give ACC2(Nd). The obtained ACC2(Nd) was cryopreserved at −80° C. […]

[3] = Table 8, recombinant human ACC1, 30° C., absorbance 620 nm, read-out: IC50 (ACC1 inhibitory activity)
[4] = Table 9, recombinant human ACC2(Nd), N terminal deletion, 30° C., absorbance 620 nm, read-out: IC50 (ACC2 inhibitory activity)
[5] = Experimental Example 3, same manner as Experimental Example 1, read-out: IC50 values (ACC1 inhibitory activity)

T2 sequence (O00763 117-2458 limits assumed): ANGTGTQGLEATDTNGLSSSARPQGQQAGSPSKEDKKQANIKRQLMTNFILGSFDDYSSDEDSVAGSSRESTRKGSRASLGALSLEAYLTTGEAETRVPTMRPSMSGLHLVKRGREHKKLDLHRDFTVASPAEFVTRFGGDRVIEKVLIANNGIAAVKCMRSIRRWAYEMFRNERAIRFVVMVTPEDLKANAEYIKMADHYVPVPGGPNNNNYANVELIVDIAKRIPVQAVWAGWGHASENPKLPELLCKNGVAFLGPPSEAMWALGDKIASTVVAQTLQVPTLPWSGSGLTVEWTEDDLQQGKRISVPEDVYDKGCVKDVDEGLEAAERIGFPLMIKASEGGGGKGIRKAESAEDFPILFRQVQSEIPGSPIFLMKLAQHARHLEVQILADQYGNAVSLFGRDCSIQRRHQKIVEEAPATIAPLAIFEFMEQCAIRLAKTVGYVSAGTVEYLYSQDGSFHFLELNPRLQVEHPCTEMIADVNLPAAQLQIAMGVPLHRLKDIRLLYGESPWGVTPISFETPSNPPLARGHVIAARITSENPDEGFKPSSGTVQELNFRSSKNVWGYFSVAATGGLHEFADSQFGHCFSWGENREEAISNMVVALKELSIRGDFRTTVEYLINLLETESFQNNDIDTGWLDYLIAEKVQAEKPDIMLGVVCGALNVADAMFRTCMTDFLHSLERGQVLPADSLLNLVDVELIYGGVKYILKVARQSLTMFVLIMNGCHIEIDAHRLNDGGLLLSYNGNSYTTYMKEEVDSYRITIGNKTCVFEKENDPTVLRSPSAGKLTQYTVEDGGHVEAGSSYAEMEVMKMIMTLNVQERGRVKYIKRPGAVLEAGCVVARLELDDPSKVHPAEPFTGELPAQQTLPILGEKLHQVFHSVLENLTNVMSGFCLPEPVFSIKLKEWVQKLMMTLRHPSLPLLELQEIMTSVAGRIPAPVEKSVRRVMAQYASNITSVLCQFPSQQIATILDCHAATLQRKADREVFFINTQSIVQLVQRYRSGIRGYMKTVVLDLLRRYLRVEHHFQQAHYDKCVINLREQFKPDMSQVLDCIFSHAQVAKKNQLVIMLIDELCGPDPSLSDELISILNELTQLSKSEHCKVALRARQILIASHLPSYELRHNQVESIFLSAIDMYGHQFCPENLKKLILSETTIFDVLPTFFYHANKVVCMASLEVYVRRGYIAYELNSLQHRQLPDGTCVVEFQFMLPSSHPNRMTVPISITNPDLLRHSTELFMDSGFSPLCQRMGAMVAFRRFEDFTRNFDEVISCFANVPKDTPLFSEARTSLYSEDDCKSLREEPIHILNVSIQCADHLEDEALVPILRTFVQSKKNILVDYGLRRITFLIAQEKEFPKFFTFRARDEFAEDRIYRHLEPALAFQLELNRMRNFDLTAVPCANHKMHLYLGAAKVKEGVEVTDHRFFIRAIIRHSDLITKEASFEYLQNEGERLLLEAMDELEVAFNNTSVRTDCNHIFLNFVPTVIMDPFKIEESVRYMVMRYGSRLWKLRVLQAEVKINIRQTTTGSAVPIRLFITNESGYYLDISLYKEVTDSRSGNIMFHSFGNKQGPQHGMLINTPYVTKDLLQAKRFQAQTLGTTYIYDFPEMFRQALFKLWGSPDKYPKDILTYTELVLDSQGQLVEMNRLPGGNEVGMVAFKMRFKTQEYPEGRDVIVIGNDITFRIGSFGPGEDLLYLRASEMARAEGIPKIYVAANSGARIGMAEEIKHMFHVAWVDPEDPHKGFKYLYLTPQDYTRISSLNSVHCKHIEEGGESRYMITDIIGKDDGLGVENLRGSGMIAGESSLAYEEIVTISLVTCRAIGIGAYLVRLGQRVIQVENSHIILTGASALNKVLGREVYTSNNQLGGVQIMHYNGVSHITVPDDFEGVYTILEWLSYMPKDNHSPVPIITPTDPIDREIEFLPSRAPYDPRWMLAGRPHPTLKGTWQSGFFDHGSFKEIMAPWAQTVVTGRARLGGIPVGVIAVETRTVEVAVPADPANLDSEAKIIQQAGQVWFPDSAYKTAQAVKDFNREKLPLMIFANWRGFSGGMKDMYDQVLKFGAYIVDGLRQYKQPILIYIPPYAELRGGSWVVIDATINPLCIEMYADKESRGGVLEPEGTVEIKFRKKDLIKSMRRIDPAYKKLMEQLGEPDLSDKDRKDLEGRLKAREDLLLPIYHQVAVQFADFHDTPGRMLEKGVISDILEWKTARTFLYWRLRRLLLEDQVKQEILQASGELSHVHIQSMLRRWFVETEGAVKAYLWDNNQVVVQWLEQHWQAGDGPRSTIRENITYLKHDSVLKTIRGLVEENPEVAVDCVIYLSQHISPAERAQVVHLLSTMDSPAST

| Structure (SMILES) | IC50 [1, 3] [µM] | IC50 [2, 4] [µM] | IC50 [1, 5] [µM] | IC50 ([2]; Experimental Example 4, same manner as Experimental Example 2, read-out: IC50 values (ACC2 inhibitory activity)) [µM] |
| --- | --- | --- | --- | --- |
| CCNC(=O)Nc1sc2ccccc2c1C(=O)N1CCC(N2CCCC3(C2)OC(=O)N(CC)C3=O)CC1 (racemic) [Example 228, N-ethyl-N′-(3-{[4-(3-ethyl-2,4-dioxo-1-oxa-3,7-diazaspiro[4.5]dec-7-yl)piperidin-1-yl]carbonyl}-1-benzothien-2-yl)urea] | 0.19 | 0.041 |  |  |
| CCN1CCC2(CCCN(C3CCN(C(=O)c4c5ccccc5cc5ccccc45)CC3)C2)C1=O (centres unmarked) [Example 1, 7-[1-(9-anthrylcarbonyl)piperidin-4-yl]-2-ethyl-2,7-diazaspiro[4.5]decan-1-one] | 1.9 | 0.14 |  |  |
| CC1(C)CC2(CCCN(C3CCN(C(=O)c4cc(-c5cccnc5)nc5ccccc45)CC3)C2)C(=O)O1 (centres unmarked) [Example 92, 3,3-dimethyl-7-{1-[(2-(pyridin-3-yl)quinolin-4-yl)carbonyl]piperidin-4-yl}-2-oxa-7-azaspiro[4.5]decan-1-one] | 4.8 | 0.11 |  |  |
| CC(C)N1C(=O)CC2(CCCN(C3CCN(C(=O)c4c(NC(N)=O)sc5ccccc45)CC3)C2)C1=O (centres unmarked) [Example 366, N-(3-{[4-(2-isopropyl-1,3-dioxo-2,7-diazaspiro[4.5]dec-7-yl)piperidin-1-yl]carbonyl}-1-benzothien-2-yl)urea] | 0.18 | 0.018 |  |  |
| CCNC(=O)Nc1sc2ccccc2c1C(=O)N1CCC(N2CCCC3(CCN(CC)C3=O)C2)CC1 (centres unmarked) [Example 400, N-ethyl-N′-(3-{[4-(2-ethyl-1-oxo-2,7-diazaspiro[4.5]dec-7-yl)piperidin-1-yl]carbonyl}-1-benzothien-2-yl)urea] | 0.097 | 0.013 | ≤ 0.1 |  |
| CCN1CCC2(CCCN(C3CCN(C(=O)c4c(NC(=O)NC)sc5ccccc45)CC3)C2)C1=O (centres unmarked) [Example 339, N-(3-{[4-(2-ethyl-1-oxo-2,7-diazaspiro[4.5]dec-7-yl)piperidin-1-yl]carbonyl}-1-benzothien-2-yl)-N′-methylurea] | 0.3 | 0.045 |  |  |
| CCNC(=O)Nc1sc2ccccc2c1C(=O)N1CCC(N2CCCC3(C2)N=C(C)N(CC)C3=O)CC1 (racemic) [Example 233, 1-ethyl-3-(3-{[4-(3-ethyl-2-methyl-4-oxo-1,3,7-triazaspiro[4.5]dec-1-en-7-yl)piperidin-1-yl]carbonyl}-1-benzothien-2-yl)urea] | 0.11 | 0.017 |  |  |
| CCCN1C(=O)OC2(CCCN(C3CCN(C(=O)c4c(NC(N)=O)sc5ccccc45)CC3)C2)C1=O (centres unmarked) [Example 343, N-(3-{[4-(2,4-dioxo-3-propyl-1-oxa-3,7-diazaspiro[4.5]dec-7-yl)piperidin-1-yl]carbonyl}-1-benzothien-2-yl)urea] | 0.34 | 0.03 |  |  |
| CCNC(=O)Nc1sc2ccccc2c1C(=O)N1CCC(N2CCCC3(C2)CC(C)(C)OC3=O)CC1 (single isomer, unassigned) [Example 319, N-(3-{[4-(3,3-Dimethyl-1-oxo-2-oxa-7-azaspiro[4.5]dec-7-yl)piperidin-1-yl]carbonyl}-1-benzothien-2-yl)-N′-ethylurea] | 0.03 | 0.005 | ≤ 0.1 | ≤ 0.01 |
| CCN1C(=O)OC2(CCCN(C3CCN(C(=O)c4c(NC(N)=O)sc5ccccc45)CC3)C2)C1=O (centres unmarked) [Example 229, 1-(3-{[4-(3-ethyl-2,4-dioxo-1-oxa-3,7-diazaspiro[4.5]dec-7-yl)piperidin-1-yl]carbonyl}-1-benzothien-2-yl)urea] | 0.29 | 0.049 |  |  |
| CCN1C(=O)CC2(CCCN(C3CCN(C(=O)c4c(NC(N)=O)sc5ccccc45)CC3)C2)C1=O (racemic) [Example 240, 1-(3-{[4-(2-ethyl-1,3-dioxo-2,7-diazaspiro[4.5]dec-7-yl)piperidin-1-yl]carbonyl)-1-benzothien-2-yl)urea] | 0.35 | 0.023 |  |  |
| CCNC(=O)Nc1cnc(-c2ccccc2)cc1C(=O)N1CCC(N2CCCC3(C2)CC(C)(C)OC3=O)CC1 (centres unmarked) [Example 301, N-(4-{[4-(3,3-dimethyl-1-oxo-2-oxa-7-azaspiro[4.5]dec-7-yl)piperidin-1-yl]carbonyl}-6-phenylpyridin-3-yl)-N′-ethylurea] | 1.4 | 0.089 |  |  |
| CCNC(=O)Nc1sc2ccccc2c1C(=O)N1CCC(N2CCCC3(C2)OC(=O)N(CC)C3=O)CC1 (centres unmarked) [Example 327, N-ethyl-N′-(3-{[4-(3-ethyl-2,4-dioxo-1-oxa-3,7-diazaspiro[4.5]dec-7-yl)piperidin-1-yl]carbonyl}-1-benzothien-2-yl)urea] | 0.2 | 0.019 |  |  |

From patent publication US20100160255A1, “SPIRO-CYCLIC COMPOUND” (Takeda Pharmaceutical Company Limited, priority 2005, published 2010)
